Among the data in patent US8471004B2, “Bicyclic compounds” (Hoffman-La Roche Inc., priority 2009, dated 2013) are IC50 values, retold here.

For the assay, the target named is T1, human chemokine receptor 2 isoform B (Homo sapiens, UniProt P41597).
T1 construct: host or cells: CHOK1-CCR2B-A5 (CHO-K1)
T1 sequence (P41597 1-360 isoform P41597-2): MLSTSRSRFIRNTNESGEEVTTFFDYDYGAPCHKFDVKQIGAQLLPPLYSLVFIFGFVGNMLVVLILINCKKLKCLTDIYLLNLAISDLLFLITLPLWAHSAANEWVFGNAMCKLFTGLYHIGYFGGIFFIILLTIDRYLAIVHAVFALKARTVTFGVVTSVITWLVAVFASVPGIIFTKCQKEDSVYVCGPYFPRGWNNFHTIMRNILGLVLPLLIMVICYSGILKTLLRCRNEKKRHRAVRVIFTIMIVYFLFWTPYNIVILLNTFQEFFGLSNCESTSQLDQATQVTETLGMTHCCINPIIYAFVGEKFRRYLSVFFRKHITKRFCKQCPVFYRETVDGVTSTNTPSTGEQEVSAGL
Description: Calcium mobilization assay (CHOK1-CCR2B-A5 cells, FLIPR, MCP-1 stimulated). It counts as cell-based. The following applies: Ca mobilisation assay for CCR2, antagonist activity, 50% inhibition of specific calcium increases after 20 nM MCP-1. On the procedure:
CHOK1-CCR2B-A5 cells (from Euroscreen) stably overexpressing the human chemokine receptor 2 isoform B were cultured in Nutrient Hams F12 medium supplemented with 5% FBS, 100 U/ml penicillin, 100 μg/ml streptomycin, 400 μg/ml G418 and 5 μg/ml puromycin.
For the assay cells were grown overnight in 384-well black clear flat bottom polystyrene plates (Costar) at 37° C. at 5% CO2. After washing with DMEM, 20 mM Hepes, 2.5 mM probenecid, 0.1% BSA (DMEM assay buffer) cells were loaded with 4 μM Fluo-4 in the same DMEM assay buffer for 2 hours at 30° C. Excess dye was removed and cells were washed with DMEM assay buffer. 384-well compound plates were prepared with DMEM assay buffer/0.5% DMSO with or without various concentrations of test compounds. Usually compounds were tested for agonist and antagonist activity.
Test compounds were added to the assay plate and agonist activity was monitored as fluorescence for 80 seconds with a FLIPR (488 nm excitation; 510-570 nm emission; Molecular Devices). After 20-30 min. of incubation at 30° C., 20 nM MCP-1 (R&D; Roche) was added and fluorescence was monitored again for 80 seconds. Increases in intracellular calcium are reported as maximum fluorescence after agonist exposure minus basal fluorescence before exposure. Antagonist activity is indicated as inhibitor concentration required for 50% inhibition of specific calcium increases.
`C[C@H]1C(=O)N2[C@@H](CCCN3CCC4(CC4)[C@H](O)C3)CO[C@]2(C)CN1C(=O)Nc1ccc(Cl)c(Cl)c1` [Example 22, (3S,6S,8aR)-3-[3-((S)-4-hydroxy-6-aza-spiro[2.5]oct-6-yl)-propyl]-6,8a-dimethyl-5-oxo-hexahydro-oxazolo[3,2-a]pyrazine-7-carboxylic acid (3,4-dichloro-phenyl)-amide]: the half-maximal inhibitory concentration (IC50) came to 27.4 nM.

As to `C[C@H]1C(=O)N2C(CN1C(=O)Nc1ccc(Cl)c(Cl)c1)OC[C@@H]2CCC(=O)N1CCC2(CC2)[C@H](O)C1` (stereo partly drawn) [Example 23, (3S,6S)-3-[3-((S)-4-Hydroxy-6-aza-spiro[2.5]oct-6-yl)-3-oxo-propyl]-6-methyl-5-oxo-hexahydro-oxazolo[3,2-a]pyrazine-7-carboxylic acid (3,4-dichloro-phenyl)-amide], the IC50 was determined as 14.4 nM.

`C[C@H]1C(=O)N2[C@@H](CCC(=O)N3CCC4(CC4)[C@H](O)C3)CO[C@@H]2CN1C(=O)Nc1ccc(C(F)(F)F)c(Cl)c1` [Example 24, (3S,6S,8aR)-3-[3-((S)-4-Hydroxy-6-aza-spiro[2.5]oct-6-yl)-3-oxo-propyl]-6-methyl-5-oxo-hexahydro-oxazolo[3,2-a]pyrazine-7-carboxylic acid (3-chloro-4-trifluoromethyl-phenyl)-amide]: the IC50 was determined as 5.5 nM.

`C[C@H]1C(=O)N2[C@@H](CCC(=O)N3CCC4(CC4)[C@H](O)C3)CO[C@H]2CN1C(=O)Nc1ccc(C(F)(F)F)c(Cl)c1` [Example 25, (3S,6S,8aS)-3-[3-((S)-4-Hydroxy-6-aza-spiro[2.5]oct-6-yl)-3-oxo-propyl]-6-methyl-5-oxo-hexahydro-oxazolo[3,2-a]pyrazine-7-carboxylic acid (3-chloro-4-trifluoromethyl-phenyl)-amide]: the IC50 came out at 20 nM.

Regarding `C[C@H]1C(=O)N2[C@@H](CCC(=O)N3CCC4(CC4)[C@H](O)C3)CO[C@@H]2CN1C(=O)/C=C/c1ccc(F)c(Cl)c1` [Example 26, (3S,6S,8aR)-7-[(E)-3-(3-Chloro-4-fluoro-phenyl)-acryloyl]-3-[3-((S)-4-hydroxy-6-aza-spiro[2.5]oct-6-yl)-3-oxo-propyl]-6-methyl-hexahydro-oxazolo[3,2-a]pyrazin-5-one], the IC50 was 61.8 nM.

As for `C[C@H]1C(=O)N2[C@@H](CCC(=O)N3CCC4(CC4)[C@H](O)C3)CO[C@H]2CN1C(=O)/C=C/c1ccc(F)c(Cl)c1` [Example 27, (3S,6S,8aS)-7-[(E)-3-(3-Chloro-4-fluoro-phenyl)-acryloyl]-3-[3-((S)-4-hydroxy-6-aza-spiro[2.5]oct-6-yl)-3-oxo-propyl]-6-methyl-hexahydro-oxazolo[3,2-a]pyrazin-5-one], the IC50 was found to be 49.4 nM.

Consider `C[C@H]1C(=O)N2C(CN1C(=O)Nc1ccc(Cl)c(Cl)c1)OCCC[C@H]2CN1CCC2(CC2)[C@H](O)C1` (stereo partly drawn) [Example 28, (3S,5S)-5-((S)-4-Hydroxy-6-aza-spiro[2.5]oct-6-ylmethyl)-3-methyl-4-oxo-octahydro-9-oxa-2,4a-diaza-benzocycloheptene-2-carboxylic acid (3,4-dichloro-phenyl)-amide], for which the IC50 was determined as 3.7 nM.

`C[C@H]1C(=O)N2C(CN1C(=O)Nc1ccc(Cl)c(Cl)c1)OC[C@@H]2CC(=O)N1CCC2(CC2)[C@H](O)C1` (stereo partly drawn) [Example 29, (3S,6S)-3-[2-((S)-4-Hydroxy-6-aza-spiro[2.5]oct-6-yl)-2-oxo-ethyl]-6-methyl-5-oxo-hexahydro-oxazolo[3,2-a]pyrazine-7-carboxylic acid (3,4-dichloro-phenyl)-amide]: the IC50 worked out at 774 nM.

On to `C[C@H]1C(=O)N2C(CN1C(=O)Nc1ccc(Cl)c(Cl)c1)OCC[C@H]2CN1CCC2(CC2)[C@H](O)C1` (stereo partly drawn) [Example 30, (4S,7S)-4-((S)-4-Hydroxy-6-aza-spiro[2.5]oct-6-ylmethyl)-7-methyl-6-oxo-hexahydro-pyrazino[2,1-b][1,3]oxazine-8-carboxylic acid (3,4-dichloro-phenyl)-amide], for which the IC50 is 1.5 nM.

As to `C[C@H]1C(=O)N2[C@@H](CCN3CCC4(CC4)[C@H](O)C3)COC[C@H]2CN1C(=O)Nc1ccc(Cl)c(Cl)c1` [Example 31, (4S,7S,9aR)-4-[2-((S)-4-Hydroxy-6-aza-spiro[2.5]oct-6-yl)-ethyl]-7-methyl-6-oxo-hexahydro-pyrazino[2,1-c][1,4]oxazine-8-carboxylic acid (3,4-dichloro-phenyl)-amide], the IC50 was found to be 1.9 nM.

Regarding `C[C@H]1C(=O)N2[C@@H](CCN3CCC4(CC4)[C@H](O)C3)COC[C@H]2CN1C(=O)Nc1ccc(C(F)(F)F)c(Cl)c1` [Example 32, (4S,7S,9aR)-4-[2-((S)-4-Hydroxy-6-aza-spiro[2.5]oct-6-yl)-ethyl]-7-methyl-6-oxo-hexahydro-pyrazino[2,1-c][1,4]oxazine-8-carboxylic acid (3-chloro-4-trifluoromethyl-phenyl)-amide], the IC50 turned out to be 2.1 nM.

In the case of `C[C@H]1C(=O)N2[C@@H](CCN3CCC4(CC4)[C@H](O)C3)CC[C@H]2CN1C(=O)Nc1ccc(Cl)c(Cl)c1` [Example 33, (3S,6R,8aS)-6-[2-((S)-4-Hydroxy-6-aza-spiro[2.5]oct-6-yl)-ethyl]-3-methyl-4-oxo-hexahydro-pyrrolo[1,2-a]pyrazine-2-carboxylic acid (3,4-dichloro-phenyl)-amide], the IC50 stood at 2.7 nM.

For `C[C@H]1C(=O)N2[C@@H](CCC(=O)N3CCC4(CC4)[C@H](O)C3)CO[C@@H]2CN1C(=O)Nc1ccc(Cl)c(Cl)c1` [Example 35, (3S,6S,8aR)-3-[3-((S)-4-Hydroxy-6-aza-spiro[2.5]oct-6-yl)-3-oxo-propyl]-6-methyl-5-oxo-hexahydro-oxazolo[3,2-a]pyrazine-7-carboxylic acid (3,4-dichloro-phenyl)-amide], the 50% inhibitory concentration (IC50) came to 5.7 nM.

Take `C[C@H]1C(=O)N2[C@@H](CCC(=O)N3CCC4(CC4)[C@H](O)C3)CO[C@H]2CN1C(=O)Nc1ccc(Cl)c(Cl)c1` [Example 36, (3S,6S,8aS)-3-[3-((S)-4-Hydroxy-6-aza-spiro[2.5]oct-6-yl)-3-oxo-propyl]-6-methyl-5-oxo-hexahydro-oxazolo[3,2-a]pyrazine-7-carboxylic acid (3,4-dichloro-phenyl)-amide]: the IC50 was found to be 9.3 nM.

Consider `C[C@H]1C(=O)N2[C@@H](CCC(=O)N3CCC4(CC4)[C@H](O)C3)COC2(C)CN1C(=O)Nc1ccc(C(F)(F)F)c(Cl)c1` (stereo partly drawn) [Example 37, (3S,6S)-3-[3-((S)-4-Hydroxy-6-aza-spiro[2.5]oct-6-yl)-3-oxo-propyl]-6,8a-dimethyl-5-oxo-hexahydro-oxazolo[3,2-a]pyrazine-7-carboxylic acid (3-chloro-4-trifluoromethyl-phenyl)-amide], for which the half-maximal inhibitory concentration (IC50) came to 360 nM.

For the compound `C[C@H]1C(=O)N2[C@H](CCN3CCC4(CC4)[C@H](O)C3)CCC[C@@H]2CN1C(=O)Nc1ccc(Cl)c(Cl)c1` [Example 39, (3S,6S,9aR)-6-[2-((S)-4-Hydroxy-6-aza-spiro[2.5]oct-6-yl)-ethyl]-3-methyl-4-oxo-octahydro-pyrido[1,2-a]pyrazine-2-carboxylic acid (3,4-dichloro-phenyl)-amide], the concentration for half-maximal inhibition (IC50) was 135 nM.

As to `C[C@H]1C(=O)N2[C@H](CCN3CCC4(CC4)[C@H](O)C3)COC[C@@H]2CN1C(=O)Nc1ccc(Cl)c(Cl)c1` [Example 40, (4R,7S,9aS)-4-[2-((S)-4-Hydroxy-6-aza-spiro[2.5]oct-6-yl)-ethyl]-7-methyl-6-oxo-hexahydro-pyrazino[2,1-c][1,4]oxazine-8-carboxylic acid (3,4-dichloro-phenyl)-amide], the half-maximal inhibitory concentration (IC50) stood at 340 nM.

`C[C@H]1C(=O)N2[C@@H](CCCN3CCC4(CC4)[C@H](O)C3)CC[C@H]2CN1C(=O)Nc1ccc(Cl)c(Cl)c1` [Example 41, (3S,6S,8aS)-6-[3-((S)-4-Hydroxy-6-aza-spiro[2.5]oct-6-yl)-propyl]-3-methyl-4-oxo-hexahydro-pyrrolo[1,2-a]pyrazine-2-carboxylic acid (3,4-dichloro-phenyl)-amide]: the half-maximal inhibitory concentration (IC50) came to 3.3 nM.

For the compound `C[C@H]1C(=O)N2[C@@H](CCC(=O)N3CCC4(CC4)[C@H](O)C3)CC[C@H]2CN1C(=O)Nc1ccc(Cl)c(Cl)c1` [Example 42, (3S,6R,8aS)-6-[3-((S)-4-Hydroxy-6-aza-spiro[2.5]oct-6-yl)-3-oxo-propyl]-3-methyl-4-oxo-hexahydro-pyrrolo[1,2-a]pyrazine-2-carboxylic acid (3,4-dichloro-phenyl)-amide], the IC50 was found to be 40.4 nM.
